# Reference: patent US20230099293A1, “OGA INHIBITOR COMPOUNDS” (priority 2019, published 2023)
# Legend:
# [1] = molecular target: T1, hOGA (Homo sapiens, UniProt O60502); assay: OGA cellular assay (ICC detection of O-GlcNAcylated proteins in HEK293 cells inducible for P301L mutant human Tau); format: cell-based; parameters: Emax: dose or concentration left out as unconfirmed; conditions: for EC50: Cellular hOGA, pEC50, Table 5, HEK293 P301L Tau cells, 6 hours incubation, O-GlcNAcylation readout; for Emax: HEK293, read-out: Cellular Emax (%)
# T1 construct: endogenous in cells; host or cells: HEK293 cells inducible for P301L mutant human Tau (isoform 2N4R)
# T1 sequence (O60502 1-916): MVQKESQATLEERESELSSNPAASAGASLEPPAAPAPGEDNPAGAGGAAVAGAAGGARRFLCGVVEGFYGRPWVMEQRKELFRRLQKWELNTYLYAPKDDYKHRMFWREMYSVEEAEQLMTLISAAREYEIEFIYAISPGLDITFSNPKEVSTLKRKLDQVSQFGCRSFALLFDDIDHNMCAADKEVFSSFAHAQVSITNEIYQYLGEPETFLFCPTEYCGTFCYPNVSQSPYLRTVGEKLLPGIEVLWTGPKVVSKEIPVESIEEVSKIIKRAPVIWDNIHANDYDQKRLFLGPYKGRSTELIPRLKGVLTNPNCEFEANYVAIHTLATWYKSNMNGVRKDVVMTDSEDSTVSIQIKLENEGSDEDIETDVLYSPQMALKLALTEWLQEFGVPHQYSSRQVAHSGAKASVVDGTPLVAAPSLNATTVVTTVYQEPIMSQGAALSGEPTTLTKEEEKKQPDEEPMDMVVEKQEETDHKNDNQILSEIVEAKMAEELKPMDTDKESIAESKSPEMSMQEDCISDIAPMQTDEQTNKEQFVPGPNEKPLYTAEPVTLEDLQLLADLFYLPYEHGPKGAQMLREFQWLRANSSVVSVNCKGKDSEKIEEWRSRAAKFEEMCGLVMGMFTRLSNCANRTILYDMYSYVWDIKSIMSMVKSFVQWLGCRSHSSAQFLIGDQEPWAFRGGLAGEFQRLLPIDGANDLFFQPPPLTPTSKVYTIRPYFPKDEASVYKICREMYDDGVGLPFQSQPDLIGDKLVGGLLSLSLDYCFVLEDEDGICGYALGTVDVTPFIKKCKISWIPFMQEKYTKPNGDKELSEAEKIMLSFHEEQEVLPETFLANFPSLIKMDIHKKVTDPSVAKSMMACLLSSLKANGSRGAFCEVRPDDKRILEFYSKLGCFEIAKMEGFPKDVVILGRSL
# Procedure: HEK293 cells inducible for P301L mutant human Tau (isoform 2N4R) were established at Janssen. Thiamet-G was used for both plate validation (high control) and as reference compound (reference EC50 assay validation). OGA inhibition is evaluated through the immunocytochemical (ICC) detection of O-GlcNAcylated proteins by the use of a monoclonal antibody (CTD110.6; Cell Signaling, #9875) detecting O-GlcNAcylated residues as previously described (Dorfmueller et al. 2010 Chemistry & biology, 17:1250). Inhibition of OGA will result in an increase of O-GlcNAcylated protein levels resulting in an increased signal in the experiment. Cell nuclei are stained with Hoechst to give a cell culture quality control and a rough estimate of immediate compounds toxicity, if any. ICC pictures are imaged with a Perkin Elmer Opera Phenix plate microscope and quantified with the provided software Perkin Elmer Harmony 4.1.
# Cells were propagated in DMEM high Glucose (Sigma, #D5796) following standard procedures. 2 days before the cell assay cells are split, counted and seeded in Poly-D-Lysine (PDL) coated 96-wells (Greiner, #655946) plate at a cell density of 12,000 cells per cm^2 (4,000 cells per well) in 100 μl of Assay Medium (Low Glucose medium is used to reduce basal levels of GlcNAcylation) (Park et al. 2014 The Journal of biological chemistry 289:13519). At the day of compound test medium from assay plates was removed and replenished with 90 μl of fresh Assay Medium. 10 μl of compounds at a 10 fold final concentration were added to the wells. Plates were centrifuged shortly before incubation in the cell incubator for 6 hours. DMSO concentration was set to 0.2%. Medium is discarded by applying vacuum. For staining of cells medium was removed and cells washed once with 100 μl D-PBS (Sigma, #D8537). From next step onwards unless other stated assay volume was always 50 μl and incubation was performed without agitation and at room temperature. Cells were fixed in 50 μl of a 4% paraformaldehyde (PFA, Alpha aesar, #043368) PBS solution for 15 minutes at room temperature. […] Before analysis samples were washed 2 times manually for 5 minutes in ICC base buffer.
# Imaging is performed using Perkin Elmer Phenix Opera using a water 20× objective and recording 9 fields per well. Intensity readout at 488 nm is used as a measure of O-GlcNAcylation level of total proteins in wells. To assess potential toxicity of compounds nuclei were counted using the Hoechst staining. IC50-values are calculated using parametric non-linear regression model fitting. As a maximum inhibition Thiamet Gat a 200 uM concentration is present on each plate. In addition, a concentration response of Thiamet G is calculated on each plate.
# [2] = molecular target: T2, recombinant human Meningioma Expressed Antigen 5 (MGEA5), also referred to as O-GlcNAcase (OGA) (Homo sapiens, UniProt O60502); assay: OGA biochemical assay (inhibition of FM-GlcNAc hydrolysis, fluorescence); conditions: for IC50: Enzymatic hOGA, pIC50, Table 5, full length OGA 2 nM, FM-GlcNAc 100 uM, 6 h at room temperature; for Emax: read-out: Enzymatic Emax (%)
# T2 construct: Full length OGA enzyme was purchased at OriGene (cat #TP322411); purchased OriGene TP322411
# T2 sequence (O60502 1-916): T1 sequence (O60502 1-916)
# Procedure: The hydrolysis FM-GlcNAc (Marker Gene technologies, cat #M1485) results in the formation of β-D-N-glucosamineacetate and fluorescein. The fluorescence of the latter can be measured at excitation wavelength 485 nm and emission wavelength 538 nm. An increase in enzyme activity results in an increase in fluorescence signal. Full length OGA enzyme was purchased at OriGene (cat #TP322411). The enzyme was stored in 25 mM Tris.HCl, pH 7.3, 100 mM glycine, 10% glycerol at −20° C. […] The assay was performed in 200 mM Citrate/phosphate buffer supplemented with 0.005% Tween-20. 35.6 g Na2HIPO42H2O (Sigma, #C0759) were dissolved in 1 L water to obtain a 200 mM solution. […] The buffer to stop the reaction consists of a 500 mM Carbonate buffer, pH 11.0. […] OGA was used at a 2 nM concentration and FM-GlcNAc at a 100 uM final concentration. Dilutions were prepared in assay buffer.
# Plates were pre-incubated for 60 min at room temperature and then 2 μl FM-GlcNAc substrate mix added. […] Plates were briefly centrifuged for 1 min at 1000 rpm and incubate at room temperature for 6 h. To stop the reaction 5 μl STOP buffer were added and plates centrifuge again 1 min at 1000 rpm. Fluorescence was quantified in the Thermo Scientific Fluoroskan Ascent or the PerkinElmer EnVision with excitation wavelength 485 nm and emission wavelength 538 nm.
# For analysis a best-fit curve is fitted by a minimum sum of squares method. From this an IC50 value and Hill coefficient was obtained. High control (no inhibitor) and low control (saturating concentrations of standard inhibitor) were used to define the minimum and maximum values.
SMILES,EC50 [1] [nM],Emax [1] [%],IC50 [2] [nM],Emax [2] [%],melting point [°C]
Cc1ccc(-n2nc(C)c(Nc3nccc4c3ncn4CC(=O)N(C)C)c2C)cc1C [Compound 42],295,70,21.9,93,144.7
Cc1cc(C)cc(-n2nc(C)c(Nc3nccc4c3ncn4CC(=O)N(C)C)c2C)c1 [Compound 43],437,65,14.8,99,154.7
COc1ccc(-n2nc(C)c(Nc3nccc4c3ncn4CC(=O)N(C)C)c2C)cc1 [Compound 44],457,64,27.5,99,199.9
Cc1ccc(-n2nc(C)c(Nc3nccc4c3ncn4CC(=O)N(C)C)c2C)cc1 [Compound 45],550,94,23.4,94,214.9
Cc1cc(C#N)cc(C)c1Nc1nccc2c1ncn2CC(=O)N(C)C [Compound 46],468,69,13.5,92,263.4
CC(C)c1cc(F)cc(Cl)c1Nc1nccc2c1ncn2CC(=O)N(C)C [Compound 47],67.6,110,13.5,97,251.8
Cc1cc(C(F)(F)F)cc(C)c1Nc1nccc2c1ncn2CC(=O)N1CCCC1 [Compound 49],646,57,93.3,95,196.6
Cc1cc(C(F)(F)F)cc(C)c1Nc1nccc2c1ncn2CC(=O)N1CCC1 [Compound 50],933,48,126,94,176.4
Cc1cc(C(F)(F)F)cc(C)c1Nc1nccc2c1ncn2CC(=O)N(C)C1CC1 [Compound 52],138,73,8.13,102,199.8
[2H]C([2H])([2H])N(C(=O)Cn1cnc2c(Nc3c(C)cc(C(F)(F)F)cc3C)nccc21)C([2H])([2H])[2H] [Compound 53],135,87,7.24,103,208.2
CCCCn1cnc2c(Nc3c(C)cc(F)cc3C)nccc21 [Compound 57],513,62,53.7,99,184.45
"Cc1cc(C(F)(F)F)cc(C)c1Nc1nccc2c1ncn2Cc1ccon1 [Compound 59, N-(2,6-dimethyl-4-(trifluoromethyl)phenyl)-1-(isoxazole-3-ylmethyl)-1H-imidazo[4,5-c]pyridine-4-amine]",,72,9.12,101,154.7
"Cc1cc(C(F)(F)F)cc(C)c1Nc1nccc2c1ncn2-c1ccc(F)cn1 [Compound 60, N-(2,6-Dimethyl-4-(trifluoromethyl)phenyl)-1-(5-fluoropyridin-2-yl)-1H-imidazo[4,5-c]pyridin-4-amine]",933,44,117,100,186.5
"Cc1cc(C(F)(F)F)cc(C)c1Nc1nccc2c1ncn2CC(=O)N(C)C [Compound 61, 2-(4-((2,6-Dimethyl-4-(trifluoromethyl)phenyl)amino)-1H-imidazo[4,5-c]pyridin-1-yl)-N,N-dimethylacetamide]",107,87,9.33,98,207.65
"Cc1cc(C(F)(F)F)cc(C)c1Nc1ncc(Cl)c2c1ncn2CC(=O)N(C)C [Compound 62, 2-[7-Chloro-4-[2,6-dimethyl-4-(trifluoromethyl)anilino]imidazo[4,5-c]pyridin-1-yl]-N,N-dimethyl-acetamide]",> 1000,13,692,91,239.9
"CCN(C)C(=O)Cn1cnc2c(Nc3c(C)cc(C(F)(F)F)cc3C)nccc21 [Compound 63, 2-[4-[2,6-Dimethyl-4-(trifluoromethyl)anilino]imidazo[4,5-c]pyridin-1-yl]-N-ethyl-N-methyl-acetamide]",89.1,100,9.33,98,186.5
"Cc1cc(C(F)(F)F)cc(C)c1Nc1nccc2c1cnn2CC(=O)N(C)C [Compound 64, 2-[4-[2,6-Dimethyl-4-(trifluoromethyl)anilino]pyrazolo[4,3-c]pyridin-1-yl]-N,N-dimethyl-acetamide]",234,78,42.7,101,196.5
"Cc1ccnc(C(C)C)c1Nc1nccc2c1cnn2CC(=O)N(C)C [Compound 65, 2-[4-[(2-Isopropyl-4-methyl-3-pyridyl)amino]pyrazolo[4,3-c]pyridin-1-yl]-N,N-dimethyl-acetamide]",> 1000,24,174,97,211.5
